Measurements from patent US20240082342A1, “PEPTIDE THERAPEUTICS FOR INCREASING LUNG CELL VIABILITY” (BOARD OF REGENTS, THE UNIVERSITY OF TEXAS SYSTEM, priority 2018, published 2024).
“Also recorded” adds a separate entry of the source.

Legend:
AECs from COPD lungs = AECs from COPD lungs treated in vitro for 48 h; assay type: cell-based, human
Procedure: Primary Airway Epithelial Cells (AECs); Normal, Human (ATCC® PCS-301-010™) and Primary Airway Epithelial Cells; COPD (ATCC® PCS-301-013™) were obtained from the ATCC and cultured in Airway Cell Basal Medium with glutamine, Extract P, HLL Supplement, and AEC Supplement. containing and 1% penicillin-streptomycin. The cells were maintained at 37° C. in a humidified atmosphere at 5% CO2. All media, supplements, and antibiotics were purchased from ATCC.
CSP7 and CP were dissolved in DMSO and diluted in HBSS for working concentration of 300 µg/2 ml. These peptides were used for the treatment of COPD in vitro and IP injection of mice. For nasal insufflation, the peptides were formulated as follows: 0.579 mg/ml of CSP7/CP was added to 15.456 mg/ml of lactose monohydrate in phosphate buffered saline and the pH was adjusted to 8.4 to give a clear solution. The solution was filtered through a 0.22-micron syringe filter (Bhandary et al. supra; Tiwari et al., supra).
The cells were lysed with RIPA buffer (Pierce, USA) containing protease inhibitor cocktail (Roche, Germany) and phosphatase inhibitor cocktail (Sigma-Aldrich, USA) on ice for 30 min. After centrifugation at 12,000×g and 4° C. for 20 min, the supernatants were collected. The protein concentrations were determined using the BCA protein assay kit (Pierce, USA). Cell lysates were mixed with 5×SDS-PAGE sample buffer and boiled for 5 min. Thirty micrograms of protein was subjected to 10% SDS-PAGE electrophoresis and transferred to nitrocellulose membranes. The membranes were blocked with 5% milk and then incubated at 4° C. for 16 h with the following diluted primary antibodies (Tiwari et al., supra). The blots were then washed and probed with horseradish peroxidase-conjugated secondary IgG antibodies. The bound antibodies were visualized using SuperSignal™ Maximum Sensitivity Substrate (Thermo Fisher Scientific, USA). For normalization, the membranes were stripped with Restore Western blot stripping buffer and incubated with the following primary antibodies: anti-ERK (1:1000), anti-MUC5AC (1:1000), anti-HDAC6(1:1000), anti-SPDEF(1:1000), anti-FOXA2(1:1000), anti-FOXA3 (1:1000) anti-LC3(1:1000), anti-Beclin1(1:1000), anti-p62(1:1000), anti-p53(1:1000), anti-PAI-1(1:1000) and anti-GAPDH (1:1000).
Cell culture. Primary human AECs from histologically normal and COPD lungs were purchased from ATCC. These cells were cultured in AEC Basal Medium with glutamine, extract P, HLL Supplement, and AEC supplement and 1% penicillin-streptomycin at 37° C. and 5% CO2. AT2 cells were isolated from C57BL/6 mice following the method of Corti and colleagues (Roscioli et al, 2018) with minor modifications. The cells were plated on plastic culture dishes precoated with anti-CD-32 and anti-CD-45 antibodies for 2 h at […]. Non-adherent cells were collected, and the purity of AT2 cell preparations was assessed by […] for inclusion bodies (Shetty et al, 2012).
Peptide preparation. CSP7 and CP were dissolved in DMSO and diluted in HBSS as described elsewhere (Marudamuthu et al., SciTransl Med 11: eaat2848, 2019. doi: 10.1126/scitranslmed.aat2848). These peptides were used to treat AECs in vitro or IP injection of CS-exposed mice. For airway delivery by liquid nebulization, CSP7 (0.579 mg/ml) was added to PBS containing lactose monohydrate (15.456 mg/ml). The pH was adjusted to 8.4 to give a clear solution, filtered through a 0.22-micron syringe filter as described earlier (Marudamuthu et al., 2019.)
Protein extraction and Western blot assay. AEC and AT2 cell lysates were prepared using RIPA buffer (Pierce, USA) containing a protease inhibitor cocktail (Roche, Germany) and phosphatase inhibitor cocktail (Sigma-Aldrich, USA). AEC and AT2 cell lysates were subjected to Western blotting using ERK, MUC5AC, HDAC6, SPDEF, FOXA2, FOXA3, LC3, p53, PAI-1, Acp53, S15p53, cleaved caspase-3, β-galactosidase and R-actin antibodies at 1:500-1:1000 dilution (Table 1). […]

[1] = test system: AECs from nL overexpressing CAV1, p53 or PAI-1; assay: AECs transduced with Ad-CAV1, Ad-p53 or Ad-PAI-1; assay type: cell-based, human
Procedure: Expression of CAV1, p53, or PAI-1 in AECs. AECs isolated from nL were separately transduced with Ad-CAV1 or Ad-p53 or Ad-PAI-1. AECs transduced with Ad-Ev were used as controls. In a separate experiment, AECs from nL in culture dishes were treated with Lv-p53 or Lv-PAI-1 shRNA to suppress its baseline expression before treating these cells with CSE. Naive AECs and AECs exposed to non-specific control shRNA was used as controls.

Row | Substance | Beclin-1 and ATG5 expression (AECs from COPD lungs) | ERK phosphorylation (AECs from COPD lungs) | FOXA2, acetylated alpha-tubulin, CAV1, p53 and PAI-1 proteins (AECs from COPD lungs) | LC3-II accumulation (AECs from COPD lungs) | MMP12 expression (AECs from COPD lungs) | PP2A and CIP2A protein (Western blot) (AECs from COPD lungs) | PP2A mRNA (AECs from COPD lungs) | p62 expression (AECs from COPD lungs) | MUC5AC, HDAC6, PAI-1, p53, Cav1, FOXA3, SPDEF, LC3, FOXA2, Ac-Tub proteins (Western blot) (AECs from COPD lungs; 48 h) | MUC5AC, HDAC6, FOXA3, LC3, FOXA2, acetylated alpha-tubulin; mucus hypersecretion and cilia disassembly ([1]; Ad-CAV1 transduced AECs) | p53 and PAI-1 expression ([1]; Ad-CAV1 transduced AECs) | MUC5AC, HDAC6, FOXA3, p53, LC3, acetylated alpha-tubulin ([1]; Ad-PAI-1 transduced AECs) | MUC5AC, acetylated alpha-tubulin, FOXA2, CAV1, p53, PAI-1 ([1]; Ad-p53 transduced AECs)
1 | FTTFTVT (listed as Homo sapiens) [CSP7, heptapeptide fragment of the caveolin-1 scaffolding domain peptide CSP] | mitigate | decrease in ERK phosphorylation; also recorded: reversed in AECs exposed to CSP7 | restoration of FOXA2 and acetylated alpha-tubulin, and inhibition of CAV1, p53 and PAI-1 | reversed | decreased; also recorded: markedly reduced the MMP12 level | reversed | improved | significantly elevated | reversed; also recorded: reduced the expression of MUC5AC, HDAC6, FOXA3, SPDEF and, LC3 | can mitigate the mucus hypersecretion and cilia disassembly; also recorded: reduced CAV1-induced MUC5AC, HDAC6, FOXA3, and LC3 while restoring FOXA2 and acetylated alpha-tubulin | reduced the expression of p53 and PAI-1 | reversed | reduced MUC5AC and restored acetylated alpha-tubulin and FOXA2, while inhibiting CAV1, p53, and PAI-1
2 | WGIDKAFFTTSTVTYKWFRY [CP, scrambled control peptide with the same amino acid composition as CSP, reference compound] |  | still showed elevated phospho-ERK1/2 |  |  |  |  |  |  |  |  |  |  | 
